Source: ChEMBL document CHEMBL5154869, “Discovery of 4-((E)-3,5-dimethoxy-2-((E)-2-nitrovinyl)styryl)aniline derivatives as potent and orally active NLRP3 inflammasome inhibitors for colitis” (Eur J Med Chem, 2022)
Active and inactive are the calls of the source. The rule behind the calls is not given here.

Key:
[1] = system: Mus musculus; assay: Anti-colitis activity against DSS-induced colitis C57BL/6 mouse model assessed as reduction in IL-6 level in colon at 10 to 20 mg/kg, po administered once a day and measured on day 8 by ELISA; assay type: functional, organism-based; details: dose 10-20 mg/kg, time 8.0 day
[2] = system: Mus musculus; assay: Anti-colitis activity against DSS-induced colitis C57BL/6 mouse model assessed as reduction in pathological index score of colon at 10 to 20 mg/kg, po administered once a day and measured on day 8 by H and E staining based analysis; assay type: functional, organism-based; details: dose 10-20 mg/kg, time 8.0 day
[3] = target: NACHT, LRR and PYD domains-containing protein 3 (Mus musculus) (UniProt Q8R4B8); assay: Binding affinity to NLRP3 in mouse J774.A1 cell lysates assessed as reduction in protein degradation at 50 uM incubated at 48 to 78 degC by CETSA; assay type: subcellular
NACHT, LRR and PYD domains-containing protein 3 (Mus musculus), sequence (Q8R4B8 whole entry, the tested form may be a part): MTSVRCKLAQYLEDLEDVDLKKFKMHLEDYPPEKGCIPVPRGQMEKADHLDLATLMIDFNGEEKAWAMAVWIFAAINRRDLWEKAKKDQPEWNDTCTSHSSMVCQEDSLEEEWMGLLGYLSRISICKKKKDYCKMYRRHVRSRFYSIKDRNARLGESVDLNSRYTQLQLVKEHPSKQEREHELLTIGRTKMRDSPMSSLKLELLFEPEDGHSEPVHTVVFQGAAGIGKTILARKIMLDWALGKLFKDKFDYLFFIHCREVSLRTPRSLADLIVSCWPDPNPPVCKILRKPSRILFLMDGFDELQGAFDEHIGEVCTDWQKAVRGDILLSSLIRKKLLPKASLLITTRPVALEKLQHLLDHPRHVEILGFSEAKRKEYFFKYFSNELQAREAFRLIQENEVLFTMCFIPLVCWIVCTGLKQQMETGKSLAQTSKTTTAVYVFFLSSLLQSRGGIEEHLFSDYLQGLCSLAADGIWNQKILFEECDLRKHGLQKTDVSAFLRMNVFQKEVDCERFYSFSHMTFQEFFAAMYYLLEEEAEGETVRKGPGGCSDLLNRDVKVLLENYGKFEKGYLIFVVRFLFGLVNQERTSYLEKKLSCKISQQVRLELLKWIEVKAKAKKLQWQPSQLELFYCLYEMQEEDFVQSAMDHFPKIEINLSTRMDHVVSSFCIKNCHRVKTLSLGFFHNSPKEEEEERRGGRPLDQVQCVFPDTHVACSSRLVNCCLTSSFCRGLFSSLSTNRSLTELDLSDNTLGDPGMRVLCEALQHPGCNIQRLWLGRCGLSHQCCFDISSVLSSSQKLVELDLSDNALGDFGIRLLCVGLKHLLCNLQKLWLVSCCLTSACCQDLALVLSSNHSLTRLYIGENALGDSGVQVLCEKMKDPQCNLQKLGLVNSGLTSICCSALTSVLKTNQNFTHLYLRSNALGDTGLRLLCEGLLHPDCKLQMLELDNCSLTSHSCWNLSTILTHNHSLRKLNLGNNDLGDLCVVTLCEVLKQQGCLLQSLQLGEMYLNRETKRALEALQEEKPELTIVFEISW

[4] = target: NACHT, LRR and PYD domains-containing protein 3 (Mus musculus) (UniProt Q8R4B8); assay: (§1) Inhibition of NLRP3 inflammasome activation in LPS/ATP-treated C57BL/6 mouse bone marrow-derived macrophages assessed as reduction in activated caspase 1(P20) level in cell lysates preincubated for 3 hrs with LPS and for 30 mins with compound prior to ATP addition and measured after 30 mins by Western blot analysis; assay type: subcellular; details: BMDM, time 60.0 min
[5] = target: NACHT, LRR and PYD domains-containing protein 3 (Mus musculus) (UniProt Q8R4B8); assay: as §1, with “LPS/MSU-treated” for “LPS/ATP-treated”, “cleaved IL-1 beta” for “activated caspase 1(P20)”, “culture supernatants” for “cell lysates”, “MSU” for “ATP”; assay type: cell-based; details: BMDM, time 60.0 min
[6] = target: NACHT, LRR and PYD domains-containing protein 3 (Mus musculus) (UniProt Q8R4B8); assay: (§2) Inhibition of NLRP3 inflammasome activation in LPS/nigericin-treated C57BL/6 mouse bone marrow-derived macrophages assessed as inhibition of ASC oligomerization preincubated for 3 hrs with LPS and for 30 mins with compound prior to nigericin addition and measured after 30 mins by Western blot analysis; assay type: cell-based; details: BMDM, dose 0.5-2 µM, time 60.0 min, DDE = dose-dependent effect
[7] = target: NACHT, LRR and PYD domains-containing protein 3 (Mus musculus) (UniProt Q8R4B8); assay: as §1, with “LPS/nigericin-treated” for “LPS/ATP-treated”, “lysates at 0.5 to 2 uM” for “lysates”, “nigericin” for “ATP”; assay type: subcellular; details: BMDM, dose 0.5-2 µM, time 60.0 min, DDE = dose-dependent effect
[8] = Metabolic stability in human liver microsomes assessed as half life by LC-MS/MS analysis; assay type: ADME, Microsome
[9] = Metabolic stability in human hepatocytes assessed as intrinsic clearance by LC-MS/MS analysis; assay type: ADME, cell-based, Hepatocyte; details: read-out: CLH
[10] = target: NACHT, LRR and PYD domains-containing protein 3 (Mus musculus) (UniProt Q8R4B8); assay: as §1, with “LPS/MSU-treated” for “LPS/ATP-treated”, “MSU” for “ATP”; assay type: subcellular; details: BMDM, time 60.0 min
[11] = Cytotoxicity against human L02 cells assessed as reduction in cell viability incubated for 24 hrs by MTT assay; assay type: toxicity, cell-based
[12] = system: Mus musculus; assay: Anti-colitis activity against DSS-induced colitis C57BL/6 mouse model assessed as reduction in decrease of goblet cells in colon at 10 to 20 mg/kg, po administered once a day and measured on day 8 by H and E staining based analysis; assay type: functional, organism-based; details: dose 10-20 mg/kg, time 8.0 day
[13] = target: NACHT, LRR and PYD domains-containing protein 3 (Mus musculus) (UniProt Q8R4B8); assay: as §2, with “reduction in ASC-NLRP3 protein-protein interaction at 2 to 4 uM” for “inhibition of ASC oligomerization”, “immunoprecipitation method” for “Western blot analysis”; assay type: cell-based; details: BMDM, dose 2-4 µM, time 60.0 min
[14] = target: NACHT, LRR and PYD domains-containing protein 3 (Mus musculus) (UniProt Q8R4B8); assay: as §2, with “reduction in NEK7-NLRP3 protein-protein interaction at 2 to 4 uM” for “inhibition of ASC oligomerization”, “immunoprecipitation method” for “Western blot analysis”; assay type: cell-based; details: BMDM, dose 2-4 µM, time 60.0 min
[15] = target: NACHT, LRR and PYD domains-containing protein 3 (Mus musculus) (UniProt Q8R4B8); assay: as §1, with “LPS/nigericin-treated” for “LPS/ATP-treated”, “culture supernatants” for “cell lysates”, “nigericin” for “ATP”; assay type: cell-based; details: BMDM, dose 0.5-2 µM, time 60.0 min, DDE = dose-dependent effect
[16] = Inhibition of LPS/nigericin-induced reactive oxygen species production in C57BL/6 mouse bone marrow-derived macrophages assessed as ROS level at 1 uM by DCFH-DA staining based flow cytometry (reference value: 33.51%); assay type: functional, BMDM; design: scale not given: the % may be the effect or the level left
[17] = system: Mus musculus; assay: Anti-colitis activity against DSS-induced colitis C57BL/6 mouse model assessed as reduction in TNF-alpha level in colon at 10 to 20 mg/kg, po administered once a day and measured on day 8 by ELISA; assay type: functional, organism-based; details: dose 10-20 mg/kg, time 8.0 day
[18] = target: NACHT, LRR and PYD domains-containing protein 3 (Mus musculus) (UniProt Q8R4B8); assay: Inhibition of NLRP3 inflammasome activation in LPS/MSU-treated C57BL/6 mouse bone marrow-derived macrophages assessed as reduction in IL-1beta secretion preincubated for 3 hrs with LPS and for 30 mins with compound prior to MSU addition and measured after 30 mins by ELISA; assay type: cell-based; details: BMDM, time 60.0 min
[19] = system: Mus musculus; assay: Anti-colitis activity against DSS-induced colitis C57BL/6 mouse model assessed as reduction in IL-1 beta level in colon at 10 to 20 mg/kg, po administered once a day and measured on day 8 by ELISA; assay type: functional, organism-based; details: dose 10-20 mg/kg, time 8.0 day
[20] = Metabolic stability in human liver microsomes assessed as intrinsic clearance by LC-MS/MS analysis; assay type: ADME, Microsome; details: read-out: CLH
[21] = target: NACHT, LRR and PYD domains-containing protein 3 (Mus musculus) (UniProt Q8R4B8); assay: as §1, with “LPS/MSU-treated” for “LPS/ATP-treated”, “culture supernatants” for “cell lysates”, “MSU” for “ATP”; assay type: cell-based; details: BMDM, time 60.0 min
[22] = target: NACHT, LRR and PYD domains-containing protein 3 (Mus musculus) (UniProt Q8R4B8); assay: as §1, with “culture supernatants” for “cell lysates”; assay type: cell-based; details: BMDM, time 60.0 min
[23] = target: NACHT, LRR and PYD domains-containing protein 3 (Mus musculus) (UniProt Q8R4B8); assay: Inhibition of NLRP3 inflammasome activation in LPS-stimulated mouse J774.A1 cells assessed as reduction in pyroptosis at 10 uM pretreated for 4 hrs with LPS and for 30 mins with compound prior to ATP addition and measured after 30 mins by PI/Hoechst33342 staining based analysis; assay type: cell-based; details: time 60.0 min
[24] = target: NACHT, LRR and PYD domains-containing protein 3 (Mus musculus) (UniProt Q8R4B8); assay: (§3) Inhibition of NLRP3 inflammasome activation in LPS/nigericin-treated C57BL/6 mouse bone marrow-derived macrophages assessed as reduction in IL-1beta secretion preincubated for 3 hrs with LPS and for 30 mins with compound prior to nigericin addition and measured after 30 mins by ELISA; assay type: cell-based; details: BMDM, time 60.0 min, DDE = dose-dependent effect
[25] = target: NACHT, LRR and PYD domains-containing protein 3 (Mus musculus, UniProt Q8R4B8); assay: as §3; assay type: cell-based, BMDM
NACHT, LRR and PYD domains-containing protein 3 (Mus musculus, UniProt Q8R4B8), sequence (Q8R4B8 whole entry, the tested form may be a part): as above

[26] = system: Mus musculus; assay: Anti-colitis activity against DSS-induced colitis C57BL/6 mouse model assessed as reduction in colon shortening at 10 to 20 mg/kg, po administered once a day; assay type: functional, organism-based; details: dose 10-20 mg/kg
[27] = target: NACHT, LRR and PYD domains-containing protein 3 (Mus musculus) (UniProt Q8R4B8); assay: Inhibition of NLRP3 inflammasome activation in LPS-stimulated mouse J774.A1 cells assessed as reduction in pyroptosis pretreated for 4 hrs with LPS and for 30 mins with compound prior to ATP addition and measured after 30 mins by PI/Hoechst33342 staining based analysis; assay type: cell-based; details: dose 2.5-10 µM, time 60.0 min, DDE = dose-dependent effect
[28] = target: NACHT, LRR and PYD domains-containing protein 3 (Homo sapiens, UniProt Q96P20); assay: Binding affinity to GFP-fused NLRP3 (unknown origin) expressed in HEK293T cells by MST assay; assay type: cell-based
NACHT, LRR and PYD domains-containing protein 3 (Homo sapiens, UniProt Q96P20), sequence (Q96P20 whole entry, the tested form may be a part): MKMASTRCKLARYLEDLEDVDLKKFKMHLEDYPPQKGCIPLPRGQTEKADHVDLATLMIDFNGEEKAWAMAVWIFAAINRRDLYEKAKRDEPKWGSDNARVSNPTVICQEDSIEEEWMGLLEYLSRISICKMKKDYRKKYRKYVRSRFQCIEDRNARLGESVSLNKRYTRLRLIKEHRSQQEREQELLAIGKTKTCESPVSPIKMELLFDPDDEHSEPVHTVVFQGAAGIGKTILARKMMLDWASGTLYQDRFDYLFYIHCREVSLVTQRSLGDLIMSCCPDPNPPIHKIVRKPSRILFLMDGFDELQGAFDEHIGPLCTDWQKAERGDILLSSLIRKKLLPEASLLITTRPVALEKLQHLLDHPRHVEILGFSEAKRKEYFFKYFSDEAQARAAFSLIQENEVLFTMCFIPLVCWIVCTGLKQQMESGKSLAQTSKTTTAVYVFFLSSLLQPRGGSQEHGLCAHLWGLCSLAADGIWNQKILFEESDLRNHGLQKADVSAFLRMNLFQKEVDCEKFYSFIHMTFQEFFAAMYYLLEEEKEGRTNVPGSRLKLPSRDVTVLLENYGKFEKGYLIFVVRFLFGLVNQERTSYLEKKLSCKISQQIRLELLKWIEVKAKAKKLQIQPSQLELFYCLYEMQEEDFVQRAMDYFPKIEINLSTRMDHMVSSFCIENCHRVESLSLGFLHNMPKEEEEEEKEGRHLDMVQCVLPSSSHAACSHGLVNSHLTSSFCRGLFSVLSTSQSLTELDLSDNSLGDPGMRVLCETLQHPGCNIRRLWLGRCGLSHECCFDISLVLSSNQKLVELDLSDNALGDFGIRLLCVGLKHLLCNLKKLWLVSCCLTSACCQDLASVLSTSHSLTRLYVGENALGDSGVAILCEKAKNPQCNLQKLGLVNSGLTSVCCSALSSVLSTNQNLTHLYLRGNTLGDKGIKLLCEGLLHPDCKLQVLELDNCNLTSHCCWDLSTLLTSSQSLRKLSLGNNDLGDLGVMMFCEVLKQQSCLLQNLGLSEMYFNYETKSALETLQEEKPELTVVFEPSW

[29] = system: Mus musculus; assay: Anti-colitis activity against DSS-induced colitis C57BL/6 mouse model assessed as reduction in disease activity index administered po once a day; assay type: functional, organism-based; details: dose 10-20 mg/kg, DDE = dose-dependent effect
[30] = target: NACHT, LRR and PYD domains-containing protein 3 (Mus musculus) (UniProt Q8R4B8); assay: Inhibition of NLRP3 inflammasome activation in LPS/ATP-treated C57BL/6 mouse bone marrow-derived macrophages assessed as reduction in IL-1beta secretion preincubated for 3 hrs with LPS and for 30 mins with compound prior to ATP addition and measured after 30 mins by ELISA; assay type: cell-based; details: BMDM, time 60.0 min
[31] = Inhibition of LPS/nigericin-induced reactive oxygen species production in C57BL/6 mouse bone marrow-derived macrophages assessed as ROS level at 4 uM by DCFH-DA staining based flow cytometry (reference value: 33.51%); assay type: functional, BMDM; design: scale not given: the % may be the effect or the level left
[32] = target: NACHT, LRR and PYD domains-containing protein 3 (Mus musculus) (UniProt Q8R4B8); assay: as §2, with “reduction in cleaved IL-1 beta level in culture supernatants” for “inhibition of ASC oligomerization”; assay type: cell-based; details: BMDM, dose 0.5-2 µM, time 60.0 min, DDE = dose-dependent effect
[33] = Inhibition of LPS/nigericin-induced reactive oxygen species production in C57BL/6 mouse bone marrow-derived macrophages assessed as ROS level at 2 uM by DCFH-DA staining based flow cytometry (reference value: 33.51%); assay type: functional, BMDM; design: scale not given: the % may be the effect or the level left
[34] = target: NACHT, LRR and PYD domains-containing protein 3 (Mus musculus) (UniProt Q8R4B8); assay: as §1, with “cleaved IL-1 beta” for “activated caspase 1(P20)”, “culture supernatants” for “cell lysates”; assay type: cell-based; details: BMDM, time 60.0 min
[35] = system: Mus musculus; assay: Anti-colitis activity against DSS-induced colitis C57BL/6 mouse model assessed as reduction in body weight loss at 10 to 20 mg/kg, po administered once a day; assay type: functional, organism-based; details: dose 10-20 mg/kg

COc1cc(/C=C/c2ccc(NC(=O)c3ccco3)cc2)c(/C=C/[N+](=O)[O-])c(OC)c1
Activity [1]: Active
Activity [2]: Active
inhibition [3]: Active
inhibition [4]: Active
inhibition [5]: Active
inhibition [6]: Dde
inhibition [7]: Dde
half-life [8]: 139 min
CLint scaled [9]: 7.4 mL/min/kg
inhibition [10]: Active
IC50 at 24 h [11]: > 100 µM
Activity [12]: Active
inhibition [13]: Active
inhibition [14]: Active
inhibition [15]: Dde
Activity [16]: 30.5%
Activity [17]: Active
inhibition [18]: Active
Activity [19]: Active
microsomal CLint [20]: 10 µL/min/mg
inhibition [21]: Active
inhibition [22]: Active
inhibition [23]: 70.8%
inhibition [24]: Dde
IC50 [25]: 1230 nM
Activity [26]: Active
inhibition [27]: Dde
Kd [28]: 213 nM
Activity [29]: Dde
inhibition [30]: Active
Activity [31]: 29.01%
inhibition [32]: Dde
Activity [33]: 29.79%
inhibition [34]: Active
Activity [35]: Active
